Measurements reported in article PMC12102262 (Nature Communications, 2025).

How the values were obtained:
EML4-ALK [1] = biological target: T1, EML4-ALK (Homo sapiens, UniProt Q9HC35+Q9UM73); assay: EML4-ALK degradation in BaF3-EML4-ALK cells by immunoblotting; type: cell-based; conditions: 1 μM, same time points
BaF3-EML4-ALK cells = assay: CCK8 cell viability time course, BaF3-EML4-ALK cells; type: cell-based; conditions: 1 μM
EML4-ALK [2] = biological target: T1, EML4-ALK; assay: EML4-ALK protein levels in H3122 xenograft tumors, I.P. dosing, immunoblotting; type: in vivo, nude mice; conditions: 10 mg/kg I.P. every other day, 8 doses
GID4 and ALK = GID4 and ALK (Homo sapiens, UniProt Q8IVV7+Q9UM73); assay: NanoBRET cellular ternary complex formation assay, HEK293T cells; type: cell-based; conditions: 6 h, increasing concentrations
GID4 and ALK, sequence (Q9UM73 1094-1400 limits assumed): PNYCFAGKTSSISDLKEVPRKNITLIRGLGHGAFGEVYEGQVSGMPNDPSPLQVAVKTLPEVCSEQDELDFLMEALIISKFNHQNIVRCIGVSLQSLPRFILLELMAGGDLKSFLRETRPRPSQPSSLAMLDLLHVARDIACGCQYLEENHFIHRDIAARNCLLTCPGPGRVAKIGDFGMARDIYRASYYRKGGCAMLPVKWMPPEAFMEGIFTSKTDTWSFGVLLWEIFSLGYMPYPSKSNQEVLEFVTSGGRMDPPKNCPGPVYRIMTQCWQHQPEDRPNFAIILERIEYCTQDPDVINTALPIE
GID4 and ALK, sequence (Q8IVV7 whole entry): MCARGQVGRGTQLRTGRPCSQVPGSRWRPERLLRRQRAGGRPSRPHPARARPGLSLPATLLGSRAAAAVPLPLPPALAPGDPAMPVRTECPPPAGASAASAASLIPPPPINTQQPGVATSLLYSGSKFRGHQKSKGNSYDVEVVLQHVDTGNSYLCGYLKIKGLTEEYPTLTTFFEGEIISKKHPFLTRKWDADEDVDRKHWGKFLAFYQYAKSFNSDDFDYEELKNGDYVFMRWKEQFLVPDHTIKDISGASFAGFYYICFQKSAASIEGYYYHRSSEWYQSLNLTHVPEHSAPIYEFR

COc1cc(N2CCC(N3CCN(C)CC3)CC2)ccc1Nc1ncc(Cl)c(Nc2ccccc2P(C)(C)=O)n1 [Brigatinib]
effect on levels of EML4-ALK (EML4-ALK [1]): had no effect | time post-treatment at which cell proliferation is inhibited (BaF3-EML4-ALK cells): 0.5 h | effect on EML4-ALK protein levels in tumors (EML4-ALK [2]): failed to reduce | BRET signal between GID4 and ALK (GID4 and ALK): did not induce any BRET signal
